Results published in the NIST ThermoML archive (doi:10.1016/j.fluid.2012.03.002).
± gives the expanded uncertainty stated by the source.

What was measured:
[1] = Crystal; DTA
[2] = Molar enthalpy of transition or fusion; conditions: Crystal; DSC

C=CC(=O)Oc1cccc(CCCCCCCCCCCCCCC)c1 [3-pentadecylphenyl acrylate]
Normal melting temperature [1]: 31.50 ± 0.7 °C
Molar enthalpy of transition or fusion [2]: 13 ± 0.263 kcal/mol
